Experiment: Storage of purified zeaxanthin powder for roughly six months unprotected, chiral column chromatography analysis
Type: physicochemical
Conditions: relatively unprotected, normal refrigeration, no anti-oxidants, no protection from atmospheric oxygen, fresh preparation at least 98% pure
Excerpt: After roughly six months of storage in a relatively unprotected state (usually under normal refrigeration with moderately frequent removal; without containing any anti-oxidants, and without taking any precautions to prevent contact by atmospheric oxygen), a sample of the zeaxanthin preparation was sent for stereoisomeric analysis to Prof.

CC1=C(/C=C/C(C)=C/C=C/C(C)=C/C=C/C=C(C)/C=C/C=C(C)/C=C/C2=C(C)C[C@@H](O)CC2(C)C)C(C)(C)C[C@H](O)C1 [Zeaxanthin, zeaxanthin]
Zeaxanthin content of preparation after storage: 92%

Reference: patent USRE38009E1, “Zeaxanthin formulations for human ingestion” (Zeavision LLC, priority 1995, dated 2003)
